Data reported in patent EP3349734B1, “USE OF SOLUBLE AND INSOLUBLE FRACTIONS OF A CYCLODEXTRIN POLYMER AND OF MIXTURES THEREOF AS AN EXCIPIENT IN A TABLET” (Université de Lille, priority 2015, dated 2017).

Experiments:
Format in all cases: physicochemical
[1] = Phase-solubility diagram of ibuprofène with cyclodextrins or soluble polymer fractions; conditions: calculated from slope and So of the solubility diagram
Procedure: (§1) Les diagrammes de solubilité de plusieurs principes actifs ont été effectués en présence de cyclodextrines et de fractions solubles de polymères de cyclodextrine mentionnés à l'exemple 1.
(§2) Des solutions de concentration croissante de cyclodextrines et fractions solubles de polymères de cyclodextrine ont été préparées dans de l'eau ultrapure [0-70 g/L]. 10 mL de chacune des solutions ont été mis en présence d'un excès du principe actif (20 mg) sous agitation pendant 24 heures à température ambiante. Les solutions ont ensuite été filtrées avec une membrane en cellulose et en Nylon (0,45 µm; VWR International, USA) respectivement pour l'Ibuprofène et le Piroxicam. L'ibuprofène a été dosé par HPLC (Shimadzu LC-2010 HT Liquid Chromatography), la phase mobile de l'ibuprofène est un mélange acétonitrile/eau (60:40) avec un pH de 2,25, une colonne C18 a été utilisée. Le piroxicam a été dosé par spectrophotométrie UV-Vis à 356 nm (UV 1800 Shimadzu).
(§3) La constante de stabilité (K1:1) est utilisée pour comparer l'affinité de principes actifs pour différentes cyclodextrines ou dérivés. La solubilité totale de médicament (St) en solution aqueuse de cyclodextrine sera : [formula]
(§4) So = solubilité intrinsèque du médicament; [CD]1 = concentration totale en cyclodextrine dans le milieu aqueux
(§5) Une parcelle de St rapport [CD] t, selon l'équation (1), donnera une ligne droite avec une pente (K 1:1 So / (1 + K 1:1 So)) et une interception (Sint) égale à So. K 1:1 est calculée à partir de la pente et So : [formula]
Afin de pouvoir faire une comparaison directe entre cyclodextrine monomère et cyclodextrine polymérisée, les diagrammes de solubilité sont présentés en fonction de la concentration rapportée en gramme de monomère de cyclodextrine par litre. Tableau 3 : Solubilité de l'ibuprofène et constantes de complexation en présence des cyclodextrines ou de fractions solubles de polymères de cyclodextrine à 10 et 50 g/L en cyclodextrine. L'utilisation de cyclodextrines sous forme de monomères ne tombe pas sous l'étendue de la protection revendiquée.

[2] = Phase-solubility diagram of piroxicam with cyclodextrins or soluble polymer fractions; conditions: calculated from slope and So of the solubility diagram
Procedure: as §1, §2, §3, §4, §5

[3] = Dissolution test of ibuprofène (Sotax USP 4, HCl pH = 1); conditions: in 45 minutes, 500 mL HCl pH = 1, 37°C, 50 mL/min
From the text: (§6) La dissolution de principes actifs à partir de comprimés selon l'invention, i.e. les comprimés formés à partir de fractions solubles de polymères de cyclodextrine, a été comparée à la dissolution de principes actifs à partir de comprimés formés à partir de cyclodextrines sous forme de monomères ainsi qu'à la dissolution du principe actif non compris dans une forme galénique.
(§7) La poudre contenant les cyclodextrines ou les fractions solubles de polymère de cyclodextrine et le principe actif a été obtenue par granulation humide comme détaillé dans l'exemple 4. Le ratio CD ou PolyCD / ibuprofène était de 90/10 et le ratio CD ou PolyCD / Piroxicam était de 60 / 40. Les essais de dissolution ont été réalisés dans un système Sotax® USP 4 (50 mL/min, 37°C) muni d'un détecteur UV. L'ibuprofène et le piroxicam ont été détectés à une longueur d'onde de 264 et 334 nm, respectivement.
(§8) Le milieu de dissolution est composé de 500 mL de HCl (pH = 1) dans le cas de l'ibuprofène, et de 500 mL de HCl (pH = 4) dans le cas du piroxicam. Des échantillons ont été prélevés toutes les 2 minutes pendant 1 h et analysés par un spectromètre UV-VIS (Perkin Elmer Lambda 25). Les courbes sont obtenues en pourcentage en divisant la quantité de principe actif libérée au cours du temps par la quantité de principe actif initiale.

[4] = Glass transition by DSC (Gordon-Taylor extrapolation of mannitol mixtures; quenched melt); conditions: after melt-quench at 210°C, heating 5°C/min
Procedure: Les expériences de calorimétrie ont été réalisées avec la DSC Q200 de chez TA Instruments. Les échantillons ont été placés dans des creusets en aluminium ouverts et balayés avec de l'azote gazeux pur. L'instrument a été étalonné en température et en enthalpie en utilisant l'indium comme standard. […]
La figure 12 montre les thermogrammes des mélanges poly-βCD / mannitol enregistrés au chauffage (5°C/min). Ils présentent tous un saut de chaleur spécifique (Cp) caractéristique d'une transition vitreuse. Ce saut est unique, ce qui indique que les mélanges sont dans un état physique amorphe homogène. La température de transition vitreuse Tg (prise au point d'inflexion du saut) diminue lorsque la concentration en mannitol augmente ce qui montre l'effet plastifiant du mannitol sur la poly-βCD. L'évolution du Tg du mélange ave la concentration en mannitol (X) suit une loi de Gordon Taylor dont l'extrapolation à X = 0 permet d'estimer le Tg de la poly-βCD pure. On trouve Tg # 400°C. La transition vitreuse de la poly-βCD se situe donc à très haute température et bien au-dessus de sa température de dégradation thermique. Elle ne peut donc pas être observée directement en DSC. Une étude analogue menée avec la poly-MebCD révèle un comportement identique et une transition vitreuse proche de Tg = 317°C. […]

[5] = Dissolution test of piroxicam (Sotax USP 4, HCl pH = 4); conditions: in 45 minutes; 500 mL HCl pH = 4, 37°C, 50 mL/min
From the text: as §6, §7, §8

Constante de complexation K1:1 [1] | Compound | other results
33 M⁻¹ | méthyl-β-cyclodextrine [MeβCD] | –
45 M⁻¹ | hydroxypropyl-β-cyclodextrine [HPβCD2] | Constante de complexation K1:1 [2]: 185 M⁻¹
– | CC(C)Cc1ccc(C(C)C(=O)O)cc1 (stereo not shown) [ibuprofène, acide 2-[4-isobutylphényl]propanoique] | dissolution du principe actif [3]: 15%
17 M⁻¹ | hydroxypropyl-β-cyclodextrine [HPβCD1] | –
– | CN1C(C(=O)Nc2ccccn2)=C(O)c2ccccc2S1(=O)=O [piroxicam, 1,1-dioxydede 4-hydroxy-2-méthyl-N-(2-pyridinyl)-2H-1,2-benzothiazine-3-carboxamide] | Tg (saut de chaleur spécifique) [4]: 65 °C; libération du piroxicam [5]: 10%
11 M⁻¹ | hydroxypropyl-γ-cyclodextrine [HPγCD] | –
1 M⁻¹ | OC[C@H]1O[C@@H]2O[C@H]3[C@H](O)[C@@H](O)[C@@H](O[C@H]4[C@H](O)[C@@H](O)[C@@H](O[C@H]5[C@H](O)[C@@H](O)[C@@H](O[C@H]6[C@H](O)[C@@H](O)[C@@H](O[C@H]7[C@H](O)[C@@H](O)[C@@H](O[C@H]8[C@H](O)[C@@H](O)[C@@H](O[C@H]9[C@H](O)[C@@H](O)[C@@H](O[C@H]1[C@H](O)[C@H]2O)O[C@@H]9CO)O[C@@H]8CO)O[C@@H]7CO)O[C@@H]6CO)O[C@@H]5CO)O[C@@H]4CO)O[C@@H]3CO [γCD, γ-cyclodextrine] | Constante de complexation K1:1 [2]: 890 M⁻¹
